Test results reported in publication PMC11912728, “L-asparaginase from the novel Fusarium falciforme AUMC 16563: extraction, purification, characterization, and cytotoxic effects on PC-3, HePG-2, HCT-116, and MCF-7 cell lines” (BMC Microbiology, 2025).

tested on: T1, L-asparaginase (pure asparaginase) from Fusarium falciforme AUMC 16563; experiment: Nesslerization (ammonia release, […] nm), Lineweaver-Burk; assay type: biochemical; conditions: substrate 2.0-20.0 mM; pH and temperature of the kinetic assay not given
T1 construct: native extracellular enzyme purified from culture supernatant (ethanol, DEAE-cellulose, Sephacryl S-200 HR)

Q: `N[C@@H](CC(=O)O)C(=O)O` [aspartic acid] was tested. Which Km did it give?
A: Its Km is 10.1 mM.

Q: How did the Km turn out when `NC(=O)CC[C@H](N)C(=O)O` [L-glutamine] was run?
A: The Km was 9.12 mM.

Q: `N[C@@H](CCC(=O)O)C(=O)O` [glutamic acid] was tested. Which Km did it give?
A: The Km was 12.2 mM.

Q: How did the Km turn out when `NC(=O)C[C@H](N)C(=O)O` [L-asparagine] was run?
A: Its Km is 0.0577 mM.
